Assay results reported in patent US20220227792A1, “CARBORANE HYDROXAMIC ACID MATRIX METALLOPROTEINASE AGENTS FOR BORON NEUTRON CAPTURE THERAPY” (LOYOLA UNIVERSITY OF CHICAGO, priority 2019, published 2022).

How the values were obtained:
MMP-2 = target: T1, MMP-2 (Homo sapiens, UniProt P08253); assay: MMP inhibition FRET assay, MMP-2; type: biochemical; details: 390 MMP FRET Substrate I, room temperature, 30 minutes, duplicate; read-out: IC50 MMP2
T1 sequence (P08253 110-660): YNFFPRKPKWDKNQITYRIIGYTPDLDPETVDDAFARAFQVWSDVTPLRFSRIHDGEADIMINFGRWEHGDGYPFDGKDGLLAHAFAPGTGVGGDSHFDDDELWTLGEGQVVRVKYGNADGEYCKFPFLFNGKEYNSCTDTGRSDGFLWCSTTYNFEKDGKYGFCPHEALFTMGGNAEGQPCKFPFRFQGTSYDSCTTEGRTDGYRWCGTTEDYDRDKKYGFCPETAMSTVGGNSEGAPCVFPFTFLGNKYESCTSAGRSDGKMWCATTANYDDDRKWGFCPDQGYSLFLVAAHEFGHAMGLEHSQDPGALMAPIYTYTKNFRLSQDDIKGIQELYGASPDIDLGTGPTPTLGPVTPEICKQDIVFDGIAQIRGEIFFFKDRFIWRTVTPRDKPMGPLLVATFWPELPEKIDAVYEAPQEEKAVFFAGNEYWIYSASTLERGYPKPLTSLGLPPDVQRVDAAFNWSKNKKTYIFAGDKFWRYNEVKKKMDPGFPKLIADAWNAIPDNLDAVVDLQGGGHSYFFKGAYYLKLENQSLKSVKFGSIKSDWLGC
Procedure: (§1) Serial dilutions of a compound were prepared with 10% DMSO and 5 μL of the dilution was added to a 50 μL reaction so that the final concentration of DMSO is 1% in all of reactions.
(§2) The enzymes were diluted in 50 mM HEPES buffer pH 7.4, 10 mM CaCl2, 0.05% Brij-35, and 1 mM APMA for activation at 37° C. for 2 hours.
(§3) […] activity assays were performed in duplicate at each concentration. The fluorescent intensity data were analyzed using the computer software, Graphpad Prism. In the absence of the compound, the fluorescent intensity (Ft) in each data set was defined as 100% activity. In the absence of enzyme, the fluorescent intensity (Fb) in each data set was defined as 0% activity. The percent activity in the presence of each compound was calculated according to the following equation: %activity=(F−Fb)/(Ft−Fb), where F=the fluorescent intensity in the presence of the compound.
(§4) The values of % activity versus a series of compound concentrations were then plotted using non-linear regression analysis of Sigmoidal dose-response curve generated with the equation Y=B+(T−B)/1+10^((Log EC50−X)×Hill Slope), where Y=percent activity, B=minimum percent activity, T=maximum percent activity, X=logarithm of compound and Hill Slope=slope factor or Hill coefficient. The IC50 value was determined by the concentration causing a half-maximal percent activity.

MMP9 (Q279R) = MMP9 (Q279R) (Homo sapiens, UniProt P14780, Q279R); assay: MMP inhibition FRET assay, MMP-9; type: biochemical; details: 390 MMP FRET Substrate I, room temperature, 30 minutes, duplicate
Sequence of MMP9 (Q279R) (P14780 107-707 Q279R limits assumed): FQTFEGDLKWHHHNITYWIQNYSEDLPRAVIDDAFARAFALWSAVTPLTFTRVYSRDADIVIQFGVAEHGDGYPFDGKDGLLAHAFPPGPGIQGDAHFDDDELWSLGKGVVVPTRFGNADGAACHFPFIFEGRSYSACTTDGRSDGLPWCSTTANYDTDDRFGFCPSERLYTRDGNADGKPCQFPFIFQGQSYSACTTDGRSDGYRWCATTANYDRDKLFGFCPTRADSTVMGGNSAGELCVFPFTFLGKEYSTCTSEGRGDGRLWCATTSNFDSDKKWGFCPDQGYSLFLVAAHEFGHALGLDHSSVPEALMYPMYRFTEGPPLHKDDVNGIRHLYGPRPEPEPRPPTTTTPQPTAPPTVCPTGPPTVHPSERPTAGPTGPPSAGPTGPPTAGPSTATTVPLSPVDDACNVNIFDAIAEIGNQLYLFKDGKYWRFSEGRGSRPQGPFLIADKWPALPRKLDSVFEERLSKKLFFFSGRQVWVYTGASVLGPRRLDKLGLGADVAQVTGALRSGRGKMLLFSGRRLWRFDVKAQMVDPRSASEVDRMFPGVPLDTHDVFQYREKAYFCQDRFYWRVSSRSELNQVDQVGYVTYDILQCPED
Procedure: as §1, §2, §3, §4

IC50 (MMP-2): 4 nM | IC50 (MMP9 (Q279R)): 4 nM
SMILES: COc1ccc(S(=O)(=O)N(CC(=O)NO)CC(C)C)cc1 [NNGH, N-Isobutyl-N-(4-methoxyphenylsulfonyl)glycyl Hydroxamic Acid]
